Experimental data reported in US20080171706A1, “Anti-Adhesive Compounds to Prevent and Treat Bacterial Infections” (priority 2004, published 2008).

Key:
[1] = biological target: T1, FimHtrCl#4 (Escherichia coli, UniProt P08191, G94E/N91S/S99N/V48A); assay: biochemical; assay type: binding, E. coli UPEC (Cl#4) strain
T1 construct: coding for the lectin domain of FimH (residues 1-158) with a C-terminal 6-histidine tag; made in house; host or cells: E. coli HB101 (lacking the fim operon), periplasmic extract, plasmid pMAS146
T1 sequence (P08191 22-179 V48A/N91S/G94E/S99N): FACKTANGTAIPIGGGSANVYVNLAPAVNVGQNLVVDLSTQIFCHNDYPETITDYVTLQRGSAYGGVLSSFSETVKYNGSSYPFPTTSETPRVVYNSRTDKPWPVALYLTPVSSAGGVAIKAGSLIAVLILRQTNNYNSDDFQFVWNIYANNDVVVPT
Procedure: To investigate if these variations reflect differences in sugar binding at the molecular level, the dissociation constants of a series of mannosides for the FimH lectin domain from a fecal (F18) and from a UPEC (Cl#4) strain were determined. […] For comparison, binding to FimHtrJ96 was also investigated. Both F18 and Cl#4 FimH lectin domains were cloned, expressed, and purified in the same way as FimHtrJ96 (Schembri et al., 2000). These two lectin domains differ from the lectin domain of FimHJ96 by substitutions Val27Ala, Asn70Ser and Ser78Asn. In addition, FimHCl#4 differs from the other two variants by a Gly73Glu substitution. […] Five different tri-mannosides corresponding to high-mannose substructures were synthesized, and their binding to FimHtrJ96, FimHtrF18 and FimHtrCl#4 measured using our [^3H]-mannose displacement assay (Table 3). Alpha-D-mannose binding was first directly measured for each of the FimH variants.
[^3H]alpha-D-mannose was obtained from Amersham. […] Syntheses of tri-mannosides was as reported earlier by Oscarson and co-workers (1993). Weighed amounts of tri-mannosides were dissolved in double distilled water to give stock solutions of 0.87 M man-(1,2)-man-(1,2)-man, 0.25 M man-(1,2)-man-(1,3)-man, 0.27 M man-(1,2)-man-(1,6)-man, 0.30 M man-(1,3)-man-(1,6)-man, 0.13 M man-(1,6)-man-(1,6)-man. Similarly, alkyl mannosides were dissolved in double distilled water to give stock solutions of 100 mM methyl mannoside, 59.8 mM ethyl mannoside, 45.9 mM propyl mannoside, 51.9 mM butyl mannoside, 17.3 mM pentyl mannoside, 20.8 mM hexyl mannoside, 15.3 mM heptyl mannoside, 15.2 mM octyl mannoside. pNPalphaMan and MeUmbalphaMan (6 mg each) were dissolved in 20 μl DMSO and diluted to 20 mM using double distilled water. Binding experiments were performed using six different concentrations of [^3H]-alpha-D-mannose (final concentrations 43.5 μM, 29.0 μM, 19.3 μM, 12.9 μM, 8.6 μM, 5.7 μM). FimHtrJ96 obtained by growing bacteria in minimal medium was used in all binding experiments. 180 μl protein at a concentration of about 500 nM was mixed with 20 μl of the radioactive ligand, and incubated at 37° C. for 20 min. To separate free ligand from bound, the mixture was rapidly filtrated through a Protran BA 85 Cellulose-nitrate filter (Schleicher & Schuell, Dassel, Germany), and washed once with 1 ml of ice-cold 1× PBS (phosphate buffered saline). Filter-bound radioactivity was measured by scintillation spectrometry within 24 hours. The displacement experiments were performed using six different concentrations (final concentrations in the range 0.0˜43.5 μM) of the inhibitor, in the presence of 43.5 μM [^3H]-alpha-D-mannose. 20 μl radioactive ligand, 20 μl inhibitor at decreasing concentrations, and 160 μl protein (500 nM) were mixed, and the experiments performed as above. All experiments were performed in duplicates. For determination of KD for α-D-mannose, a hyperbolic curve (y=P1x/(P2+x), where P2=KD) was fitted to the data. For the displacement experiments, the curve y=P1/(P2+x), where P2 is the concentration of the inhibitor displacing 50% of the labelled ligand, [I]0.5 was used instead. To calculate the inhibitor dissociation constant (KI) the Cheng & Prusoff equation (KI=[I]0.5/([L]/KL+1); KL is the constant of dissociation for the ligand) (Cheng and Prusoff, 1973), was used when both the concentration of the radioactive ligand (L) and the displacing agent (I) are in excess over the protein (LT>>PT;IT>>PT, T indicates total concentration). […] A plot of IT/((1−Y)*(LT/KL)−Y) against 1/Y gives a straight line with a slope of KI.

[2] = biological target: T2, FimC:FimH complex (Escherichia coli, UniProt P08191); assay: Binding of alpha-D-mannose to full length FimH in FimC:FimH complex; set-up: species or system E. coli
T2 construct: lectin domain (residues 1-158) is joined to a carboxy-terminal pilin domain (residues 159-279)
T2 sequence (P08191 22-300): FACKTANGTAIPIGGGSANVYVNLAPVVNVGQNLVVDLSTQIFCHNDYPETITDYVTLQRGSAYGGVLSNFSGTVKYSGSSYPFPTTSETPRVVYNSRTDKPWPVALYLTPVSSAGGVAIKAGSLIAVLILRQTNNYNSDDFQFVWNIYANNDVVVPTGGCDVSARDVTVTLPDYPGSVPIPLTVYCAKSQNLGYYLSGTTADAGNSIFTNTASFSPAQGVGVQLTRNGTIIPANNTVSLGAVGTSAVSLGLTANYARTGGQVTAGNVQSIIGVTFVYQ
T2 sequence (P31697 37-241, further chain): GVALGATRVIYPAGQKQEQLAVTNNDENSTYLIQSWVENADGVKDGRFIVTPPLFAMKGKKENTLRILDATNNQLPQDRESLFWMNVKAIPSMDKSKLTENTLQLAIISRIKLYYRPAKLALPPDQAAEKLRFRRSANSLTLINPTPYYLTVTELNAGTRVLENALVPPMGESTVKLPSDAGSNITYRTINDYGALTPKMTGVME
Procedure: To eliminate the possibility of different binding strength for full length FimH and FimHtrJ96, the binding of alpha-D-mannose to FimC:FimH complex was also measured. […] The inhibition of [^3H]-mannose binding was used in a displacement assay to determine the dissociation constant for a synthetic butyl mannoside by measuring the amount of [^3H]-mannose bound to the protein in the presence of increasing amounts of the inhibitor (FIG. 1B). […] To investigate the effect of sequential addition of methyl groups to the O1 oxygen of D-mannose, a series of alkyl mannosides were synthesized and the dissociation constants determined using the [^3H]-mannose displacement assay and by surface plasmon resonance (Table 1).

`OC[C@H]1O[C@H](O)[C@@H](O)[C@@H](O)[C@@H]1O` [Mannose, α-D-mannose] was tested, and the Kd ([1]; KD CI#4, Table 3, [3H]-mannose displacement assay (mannose measured directly)) was 10.7 µM, the Kd ([1]; KD, mannose binding measured directly, FimHtrCl#4) was 11 µM and the “ΔG° CI#4” value ([1]; Table 3, calculated from KD) was -7.0 kcal/mol. It also gave a Kd [2] of 2.3 µM.
